Series [1] concerns sensitive neurons extracted from rat embryo dorsal spinal ganglions. Kind of series: density of neuritic networks (total neurite length, anti-β-tubulin labelling) in sensitive neuron co-culture with or without cisplatin. It counts as cell-based. The settings on record: 24 hours, FIG. 1. On the procedure:
(§1) To be more precise, they studied the survival of sensitive neurons extracted from rat embryo dorsal spinal ganglions cultured in the presence of a cytotoxic agent, cisplatin, co-applied with stiripentol.
(§2) The co-culturing, for 5 days, of sensitive neurons (˜5-10% of the cultivated cell population) associated with Schwann cells and fibroblasts (˜95-90% of the cultivated cell population) is carried out in an appropriate medium as described in Hall et al. (1997) J. Neurosci. 17:2775-2784. […]
(§3) The density of the neuritic networks (axons and dendrites) labelled by an anti-β-tubulin antibody (ref T8660, Sigma, France) is then determined by measuring their length, together with the number of cell bodies marked by means of an anti-MAP2 antibody (ref M4403, Sigma, France) as indicated by Gill & Windebank (1998) J. Clin. Invest. […] Also determined is the amount of lactate dehydrogenase (LDH) (Kit de detection (detection kit), ref 1 644 793, Roche) released in the extracellular medium, the amount of which is proportional to the number of cells which are damaged or dead owing to the cisplatin-induced cell lysis, as indicated by Koh & Choi (1987) J Neurosci Methods 20:83-90.

For series [2] the test system is unchanged. Kind of series: number of cell bodies (anti-MAP2 labelling) in sensitive neuron co-culture with or without cisplatin. It counts as cell-based. As to conditions: 24 hours, FIG. 2. The method, then: as §1, §2, §3
For series [3] the test system is unchanged. Kind of series: lactate dehydrogenase (LDH) released in the extracellular medium of the co-culture with or without cisplatin. The settings on record: 24 hours, FIG. 3. Type of series: cell-based. On the procedure: as §1, §2, §3
The test system is the same in series [4]. Kind of series: in vitro model of peripheral neuropathy (cisplatin), overall neuroprotective activity. Type of series: cell-based. As to conditions: stiripentol 1-10 μM versus NGF 5 ng/ml; cisplatin 4.5 μg/ml, 24 hours. The method, then: as §1, §2, §3
The test system of series [5] is uptake of gamma-aminobutyric acid (GABA). As to conditions: cited from earlier work.
Series [6] addresses CYP1A2 (Homo sapiens, UniProt P05177). The settings on record: Tran et al. (1997); cited from earlier work.
For series [7], the target named is CYP3A4 (Homo sapiens, UniProt P08684). As to conditions: Tran et al. (1997); cited from earlier work.
[8] abbreviates: in the presence of cisplatin 4.5 μg/ml, stiripentol 1, 3, 10 μM, NGF 5 ng/ml.

“Also recorded” adds a separate entry of the source.

CYP3A4, sequence (P08684 whole entry): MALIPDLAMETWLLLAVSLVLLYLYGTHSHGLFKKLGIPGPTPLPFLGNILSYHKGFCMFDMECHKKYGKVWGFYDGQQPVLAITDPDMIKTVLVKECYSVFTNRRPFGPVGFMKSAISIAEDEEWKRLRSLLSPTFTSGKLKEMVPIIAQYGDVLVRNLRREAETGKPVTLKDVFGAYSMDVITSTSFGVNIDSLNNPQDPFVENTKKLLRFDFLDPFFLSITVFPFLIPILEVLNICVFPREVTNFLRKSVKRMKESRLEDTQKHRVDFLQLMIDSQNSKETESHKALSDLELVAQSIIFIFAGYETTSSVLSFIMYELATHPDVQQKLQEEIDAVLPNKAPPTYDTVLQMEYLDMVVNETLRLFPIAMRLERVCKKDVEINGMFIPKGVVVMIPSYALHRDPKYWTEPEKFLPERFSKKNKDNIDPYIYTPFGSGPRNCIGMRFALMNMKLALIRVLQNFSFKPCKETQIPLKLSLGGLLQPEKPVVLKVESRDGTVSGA
CYP1A2, sequence (P05177 whole entry): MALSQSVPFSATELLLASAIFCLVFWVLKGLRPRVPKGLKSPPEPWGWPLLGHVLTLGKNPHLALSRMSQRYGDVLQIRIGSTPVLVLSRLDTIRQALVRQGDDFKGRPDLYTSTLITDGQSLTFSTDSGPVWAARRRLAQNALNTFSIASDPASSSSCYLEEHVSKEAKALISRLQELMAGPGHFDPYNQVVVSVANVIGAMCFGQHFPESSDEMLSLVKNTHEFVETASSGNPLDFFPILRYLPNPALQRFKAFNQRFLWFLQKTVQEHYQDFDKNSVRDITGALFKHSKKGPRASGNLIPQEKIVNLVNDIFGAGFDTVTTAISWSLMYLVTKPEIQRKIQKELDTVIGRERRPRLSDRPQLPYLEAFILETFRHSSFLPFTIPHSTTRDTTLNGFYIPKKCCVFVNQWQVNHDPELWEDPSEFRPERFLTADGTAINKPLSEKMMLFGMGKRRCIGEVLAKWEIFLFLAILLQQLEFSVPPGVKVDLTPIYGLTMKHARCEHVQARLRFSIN

In the case of `N.N.[Cl][Pt][Cl]` [cisplatin], in series [1] (cisplatin 4.5 μg/ml alone), the “effect of cisplatin on the density of the neuritic networks” value is reported as “reduction in the density of the neuritic networks”. Besides, the “effect of cisplatin on the cell bodies” value in series [2] (cisplatin 4.5 μg/ml alone) is reported as “degeneration of the cell bodies”. Further, the “effect of cisplatin on cell lysis (LDH release)” value in series [3] (cisplatin 4.5 μg/ml alone) was “cell lysis”.

`CC(C)(C)C(O)/C=C/c1ccc2c(c1)OCO2` (stereo not shown) [stiripentol, 4,4-dimethyl-1-[(3,4-methylenedioxy)-phenyl]-1-penten-3-ol]: the “density of the neuritic networks (total length of the neurites)” value in series [1] (setting [8]) is recorded as “reduce the decrease in the density of the neuritic networks”. Besides, the “number of neuronal cell bodies” value in series [2] (setting [8]) is “reduce the decrease”. Besides, the “cell release of LDH” value in series [3] (setting [8]) was “neuroprotective effect”. In addition, in series [4], the “neuroprotective activity compared with NGF” value is “neuroprotective effect equivalent to that of NGF; also recorded: neuroprotective activity of the same order as that of NGF”. In addition, the “inhibition of the uptake of gamma-aminobutyric acid (GABA)” value in series [5] is on record as “inhibits the uptake of gamma-aminobutyric acid (GABA)”. Also, the “inhibition of CYP1A2” value in series [6] is reported as “inhibitor”. Besides, the “inhibition of CYP3A4” value in series [7] is “inhibitor”.
